Measurements as given in publication PMC9305971, “Development of [^18F]AmBF3 Tetrazine for Radiolabeling of Peptides: Preclinical Evaluation and PET Imaging of [^18F]AmBF3-PEG7-Tyr^3-Octreotide in an AR42J Pancreatic Carcinoma Model” (Bioconjugate Chemistry, 2022).

Legend:
[1] = Hydrolytic stability in 0.01 M PBS / formulated solution (radio-HPLC); assay type: physicochemical; conditions: t = 3 h, 0.01 M PBS, pH 7.4
Procedure: (§1) Lipophilicity was determined with the shake-flask method as a distribution coefficient between 0.01 M PBS and octanol. Purified radiotracer [^18F]6 (10 μL, ∼200 kBq, 1.5 nmol), [^18F]14 (20 μL, ∼260 kBq, 125 pmol), or [^18F]15 (20 μL, 144 kBq, 67 pmol) in a polypropylene tube containing 1500–2000 μL of each in a 1:1 mixture (1-octanol, 0.02 M PBS, pH 7.4) was shaken mechanically (500 rpm, 10 min) and centrifuged (1000g, 5 min), and samples from each layer (400 μL, n = 4) were measured with a γ-counter. The log D7.4 was calculated as a distribution between the two layers at pH 7.4. [^18F]6 (10 MBq, 40 nmol) diluted with 0.01 M PBS at pH 7.4 (≤1% ethanol, 5300 μL) was incubated for 180 min. At selected time points (5, 30, 60, 90, 120, 150, and 180 min), a sample (100 μL) was injected to radio-HPLC. [^18F]14 and [^18F]15 (29 MBq, 10 nmol) diluted in 2000 μL of 0.01 M PBS (≤1% ethanol) were left to incubate. A sample of [^18F]14 (100 μL) after 9 hours and [^18F]15 at selected time points between 30 and 335 min were injected into HPLC (method A). [^18F]15 (0.6 MBq, 0.134 nmol, 200 μL) formulated in ≤5% EtOH-1 × PBS was added and incubated in 2000 μL of PBS-50% human plasma at 37 °C. A 100 μL sample (at 60, 120, 180, and 240 min, n = 2) was diluted with 200 μL of cold acetonitrile and centrifuged (10,000g, 5 min). After centrifugation, a 100 μL sample of the supernatant was injected for radio-HPLC analysis.

[2] = Lipophilicity, shake-flask log D7.4 (1-octanol/PBS); assay type: physicochemical; conditions: 1-octanol/PBS pH 7.4, n = 4
Procedure: as §1, with “analysis. […]” for “analysis.”
Lipophilicity. The lipophilicities were determined with the shake-flask method as a distribution profile between 0.01 M PBS and octanol at pH 7.4. The distribution of the radiolabeled compound between the octanol and the PBS layers was calculated according

[3] = PET/CT and ex vivo biodistribution of [18F]6 in healthy mice; parameters: species or system male SCID and female C57BL/6JRj mice; conditions: i.v.; for bone uptake in tibia / gallbladder uptake: 270 min post injection
Procedure: [^18F]6 in 10% ethanol–0.01 M PBS was administered intravenously to male Fox Chase SCID mice (CB.17 SCID) (11.0 ± 0.5 MBq, ∼11 nmol, ∼150 μL, n = 4) and healthy female C57BL/6JRj mice (11.3 ± 0.3 MBq, ∼11 nmol, ∼150 μL, n = 4) under 2% isoflurane anesthesia. The PET/CT image was acquired with Inveon PET/CT for 60 min followed by a 15 min static scan 4 h after injection of the tracer. The images of the dynamic scan were reconstructed to time frames 60 × 10, 10 × 60, 4 × 300, and 3 × 600 s. After the second PET imaging (t = 270 ± 1.9 min post injection, n = 4), the organs were harvested and the radioactivity in each tissue sample was measured with a γ-counter and reported as a percentage of injected dose per gram of tissue (% ID/g). [^18F]15 was formulated in 4% ethanol in 0.01 M PBS and administered intravenously (0.2 nmol, 0.80 ± 0.30 MBq; tracer: 150 μL; tracer + blocking dose: 200 μL) to AR42J tumor-bearing Rj:NMRI-Foxn1^nu/nu mice (n = 4) under 2% isoflurane anesthesia. PET/CT images were acquired with Molecubes PET (β-CUBE) coupled with a CT (X-CUBE) (MOLECUBES NV, Ghent, Belgium) with two mice being imaged at the same time under 2% isoflurane anesthesia. Images were reconstructed to time frames 30 × 10, 15 × 60, 4 × 300, and 5 × 600 s. Quantitative image analysis was done with Carimas software (v 2.10, Turku PET Centre, Turku, Finland). Spherical ROIs were hand-drawn based on anatomical CT data and PET signal for the desired organs. The results are presented as standardized uptake values (SUVs).

hydrolytic stability, intact [1]: ≥ 99%
logD [2]: -0.13 ± 0.06
bone uptake in tibia ([3]; C57BL/6JRj female mice): 0.4 ± 0.1 % ID/g
gallbladder uptake ([3]; C57BL/6JRj female mice): 6.4 ± 2.5 % ID/g
bone uptake in tibia ([3]; SCID male mice): 0.3 ± 0.1 % ID/g
gallbladder uptake ([3]; SCID male mice): 3.5 ± 2.4 % ID/g
major elimination pathway ([3]; PET/CT and ex vivo biodistribution 270 min post injection): renal clearance
SMILES: C[N+](C)(CCNC(=O)Cc1ccc(-c2nncnn2)cc1)C[B-](F)(F)[18F] [[^18F]6]
